Laboratory results taken from patent publication US20180098969A1, “HODGKIN LYMPHOMA THERAPY” (Purdue Pharmaceutical Products L.P., priority 2016, published 2018).

Experiments:
[1] = tested on: Hodgkin lymphoma cell lines L1236-R100, L1236/DMSO and L1236; experiment: Viable cell count and IC50, all three lines; assay type: cell-based, human
Method: (b) The bendamustine-resistant Hodgkin lymphoma cell line L1236-R100, non-resistant L1236 Hodgkin lymphoma cell line cultured in DMSO L1236/DMSO and L1236 was cultured in the presence of EDO-S101 dissolved in DMSO at concentrations of 0.78 μM, 1.56 μM, 3.12 μM, 6.25 μM and 12.5 μM. Control cells were cultured in the same final concentration of DMSO. The number of viable cells was assessed at 24, 48 and 72 hours through a Countess™ automated cell counter (Invitrogen), each experiment being repeated three times and the results given being the mean of the three results ±SD.

[2] = tested on: L428 cells; experiment: Xenograft in NSG mice, HE staining and immunohistochemistry; assay type: in vivo; conditions: for Injection site: Tumour cell necrosis/apoptosis: Marked / Injection site: Tumour cell necrosis/apoptosis: Mild / Injection site: Tumour cell necrosis/apoptosis: Minimal / Injection site: Tumour cell necrosis/apoptosis: Moderate / Injection site: Tumour cell necrosis/apoptosis: No / Injection site: Tumour cell necrosis/apoptosis: Overall / Injection site: Tumour cell necrosis/apoptosis: Severe / Injection site: Tumour infiltration: Marked / Injection site: Tumour infiltration: Mild / Injection site: Tumour infiltration: Minimal / Injection site: Tumour infiltration: Moderate / Injection site: Tumour infiltration: No / Injection site: Tumour infiltration: Overall / Injection site: Tumour infiltration: Severe / Liver: Tumour infiltration: Marked / Liver: Tumour infiltration: Mild / Liver: Tumour infiltration: Minimal / Liver: Tumour infiltration: Moderate / Liver: Tumour infiltration: No / Liver: Tumour infiltration: Overall / Liver: Tumour infiltration: Severe / Tumour presence: Animals with tumour infiltration in liver and in the injection area / Tumour presence: Overall / Liver: Tumour cell necrosis/apoptosis: Marked / Liver: Tumour cell necrosis/apoptosis: Mild / Liver: Tumour cell necrosis/apoptosis: Minimal / Liver: Tumour cell necrosis/apoptosis: Moderate / Liver: Tumour cell necrosis/apoptosis: No / Liver: Tumour cell necrosis/apoptosis: Overall / Liver: Tumour cell necrosis/apoptosis: Severe: % of mice
Excerpt: Immunodeficient NOD-SCID-gammac−/− (NSG) mice aged 5 to 6 weeks were purchased from Charles River (NOD.Cg-Prkdcscid Il2rgtm1Wjl/SzJ). The mice arrived two weeks before the beginning of the experiments and were housed in micro-isolator cages during the entire course of the study. Immediately prior to the injection of Hodgkin lymphoma cells, mice were exposed to 3 Gy gamma irradiation using an IBL637 ^137Cs irradiator at a dose rate of 0.61 Gy/min. From 10^3 to 10^6 cells, either from the original cell lines or following amplification, were injected intravenously via the retro-orbital sinus. The mice were sacrificed by cervical dislocation and different organs were analysed and tumoural infiltration examined using multiple techniques.
Two independent experiments were performed to investigate the dose-effect of EDO-S101 in NSG mice eight weeks after xenografting with L428 cells as in Example 8. The aim of the protocol shown in FIG. […]
The mice were sacrificed by cervical dislocation. The sampled organs consisted of the eyes (site of injection), liver, spleen and bone marrow. Following dissection of different organs, including tumours, the first portion was used for flow cytometry (FACS) and cytogenetic analyses while the second was fixed in 4% paraformaldehyde (PFA) for immunohistochemistry (IHC). To obtain a single cell suspension, the tissues were first cut into pieces. Thereafter, the cells were physically disaggregated using an 80 μm nylon cell strainer and filtered a second time through a 70 μm nylon cell strainer (BD Biosciences, Erembodegem, Belgium).
Organs were fixed in 4% PFA, trimmed and post-fixed in 70° ethanol. They were then briefly processed using a vacuum inclusion processor and paraffin blocks were prepared. Five micrometer-thick sections were cut from these blocks and the resulting sections were stained with hemotoxylin-eosine (H&E) for histopathological analysis. In addition, IHC was carried out on of the totality of liver and spleen specimens for confirmation of the spread of engrafted cells. The search for single cells or small groups of grafted Hodgkin lymphoma cells was performed using an anti-CD30 antibody (DAKO, France; 1:40, EDTA pH9 pre-treatment) and the Ventana Discovery XT IHC system. Apoptosis and tumour necrosis were analysed.
Microscopic findings were assigned a severity score based upon the following scale: “0”=within physiological limits, “1”=minimal, “2”=mild, “3”=moderate, “4”=marked, “5”=severe. This severity score was attributed according to the size and number of observed lesions.

[3] = two doses of 60 mg/kg three weeks apart

## Cn1c(CCCCCCC(=O)NO)nc2cc(N(CCCl)CCCl)ccc21 [EDO-S101]
[1]
  anti-proliferative activity compared with bendamustine: approximately two orders of magnitude greater than for bendamustine
[2]; 80 mg/kg
  tumour masses in liver and infiltration into other organs: No tumour masses were observed in the liver, nor was infiltration observed into the other organs
  Injection site: Tumour cell necrosis/apoptosis: Marked: 0.0%
  Injection site: Tumour cell necrosis/apoptosis: Mild: 0.0%
  Injection site: Tumour cell necrosis/apoptosis: Minimal: 0.0%
  Injection site: Tumour cell necrosis/apoptosis: Moderate: 0.0%
  Injection site: Tumour cell necrosis/apoptosis: No: 0.0%
  Injection site: Tumour cell necrosis/apoptosis: Overall: 100.0%
  Injection site: Tumour cell necrosis/apoptosis: Severe: 0.0%
  Injection site: Tumour infiltration: Marked: 0.0%
  Injection site: Tumour infiltration: Mild: 0.0%
  Injection site: Tumour infiltration: Minimal: 0.0%
  Injection site: Tumour infiltration: Moderate: 0.0%
  Injection site: Tumour infiltration: No: 0.0%
  Injection site: Tumour infiltration: Overall: 33.3%
  Injection site: Tumour infiltration: Severe: 33.3%
  Liver: Tumour infiltration: Marked: 0.0%
  Liver: Tumour infiltration: Mild: 0.0%
  Liver: Tumour infiltration: Minimal: 0.0%
  Liver: Tumour infiltration: Moderate: 0.0%
  Liver: Tumour infiltration: No: 100.0%
  Liver: Tumour infiltration: Overall: 0.0%
  Liver: Tumour infiltration: Severe: 0.0%
  Tumour presence: Animals with tumour infiltration in liver and in the injection area: 0.0%
  Tumour presence: Overall: 33.3%
[2]; 80 mg/kg or 60 mg/kg
  tumour cell necrosis: No cell necerosis was observed
[2]; 1 * 60 mg/kg
  Injection site: Tumour cell necrosis/apoptosis: Marked: 0.0%
  Injection site: Tumour cell necrosis/apoptosis: Mild: 0.0%
  Injection site: Tumour cell necrosis/apoptosis: Minimal: 50.0%
  Injection site: Tumour cell necrosis/apoptosis: Moderate: 0.0%
  Injection site: Tumour cell necrosis/apoptosis: No: 50.0%
  Injection site: Tumour cell necrosis/apoptosis: Overall: 100.0%
  Injection site: Tumour cell necrosis/apoptosis: Severe: 0.0%
  Injection site: Tumour infiltration: Marked: 50.0%
  Injection site: Tumour infiltration: Mild: 0.0%
  Injection site: Tumour infiltration: Minimal: 0.0%
  Injection site: Tumour infiltration: Moderate: 25.0%
  Injection site: Tumour infiltration: No: 0.0%
  Injection site: Tumour infiltration: Overall: 100.0%
  Injection site: Tumour infiltration: Severe: 25.0%
  Liver: Tumour cell necrosis/apoptosis: Marked: 0.0%
  Liver: Tumour cell necrosis/apoptosis: Mild: 0.0%
  Liver: Tumour cell necrosis/apoptosis: Minimal: 0.0%
  Liver: Tumour cell necrosis/apoptosis: Moderate: 0.0%
  Liver: Tumour cell necrosis/apoptosis: No: 100.0%
  Liver: Tumour cell necrosis/apoptosis: Overall: 0.0%
  Liver: Tumour cell necrosis/apoptosis: Severe: 0.0%
  Liver: Tumour infiltration: Marked: 0.0%
  Liver: Tumour infiltration: Mild: 25.0%
  Liver: Tumour infiltration: Minimal: 25.0%
  Liver: Tumour infiltration: Moderate: 25.0%
  Liver: Tumour infiltration: No: 25.0%
  Liver: Tumour infiltration: Overall: 75.0%
  Liver: Tumour infiltration: Severe: 0.0%
  Tumour presence: Animals with tumour infiltration in liver and in the injection area: 75.0%
  Tumour presence: Overall: 100.0%
[2]; 2 * 60 mg/kg
  Injection site: Tumour cell necrosis/apoptosis: Marked: 33.3%
  Injection site: Tumour cell necrosis/apoptosis: Mild: 66.7%
  Injection site: Tumour cell necrosis/apoptosis: Minimal: 0.0%
  Injection site: Tumour cell necrosis/apoptosis: Moderate: 0.0%
  Injection site: Tumour cell necrosis/apoptosis: No: 0.0%
  Injection site: Tumour cell necrosis/apoptosis: Overall: 100.0%
  Injection site: Tumour cell necrosis/apoptosis: Severe: 0.0%
  Injection site: Tumour infiltration: Marked: 11.1%
  Injection site: Tumour infiltration: Mild: 0.0%
  Injection site: Tumour infiltration: Minimal: 0.0%
  Injection site: Tumour infiltration: Moderate: 0.0%
  Injection site: Tumour infiltration: No: 0.0%
  Injection site: Tumour infiltration: Overall: 11.1%
  Injection site: Tumour infiltration: Severe: 0.0%
  Liver: Tumour cell necrosis/apoptosis: Marked: 0.0%
  Liver: Tumour cell necrosis/apoptosis: Mild: 0.0%
  Liver: Tumour cell necrosis/apoptosis: Minimal: 0.0%
  Liver: Tumour cell necrosis/apoptosis: Moderate: 0.0%
  Liver: Tumour cell necrosis/apoptosis: No: 100.0%
  Liver: Tumour cell necrosis/apoptosis: Overall: 0.0%
  Liver: Tumour cell necrosis/apoptosis: Severe: 0.0%
  Liver: Tumour infiltration: Marked: 0.0%
  Liver: Tumour infiltration: Mild: 11.1%
  Liver: Tumour infiltration: Minimal: 33.3%
  Liver: Tumour infiltration: Moderate: 0.0%
  Liver: Tumour infiltration: No: 55.6%
  Liver: Tumour infiltration: Overall: 44.4%
  Liver: Tumour infiltration: Severe: 0.0%
  Tumour presence: Animals with tumour infiltration in liver and in the injection area: 0.0%
  Tumour presence: Overall: 55.6%
[2]; single 60 or 80 mg/kg or two injections of 60 mg/kg
  severity of tumoural cell infiltration: significant decrease in the severity of tumoural cell infiltration
[2]; single dose of 60 mg/kg
  tumour regression: significant tumour regression
[2]; single dose of 60 mg/kg, 60 mg/kg
  mice with tumour lesions: only one mouse had moderate tumour lesions
[2]; two administrations of 60 mg/kg, versus control and single 60 mg/kg
  tumour regression: Significant tumour regression
[2]; [3]
  infiltration in the liver: Only one mouse exhibited a moderate level of infiltration in the liver
  tumours in organs (liver, spleen, bone marrow): No tumours were observed in any organs
